From ChEMBL document CHEMBL3044740, “Syntheses and evaluation of 2,5-disubstituted 4-thiazolidinone analogues as antimicrobial agents” (2012)
Calls of active or inactive are those of the source. No cut-off for these calls is given here.

Experiments:
Type in all cases: functional
Candida albicans [1] = assay: Antifungal activity against Candida albicans MTCC 227 at 200 ug/ml by cup-plate method; details: for zone of inhibition at 200 µg/mL: read-out: DIZ
Bacillus subtilis [2] = assay: Antibacterial activity against Bacillus subtilis MTCC 121 at 300 ug/ml by cup plate method; details: read-out: DIZ
Escherichia coli [3] = assay: Antibacterial activity against Escherichia coli MTCC 739 at 50 ug/ml by cup-plate method; details: for zone of inhibition at 50 µg/mL: read-out: DIZ
Staphylococcus aureus [4] = assay: Antibacterial activity against Staphylococcus aureus MTCC 96 at 200 ug/ml by cup-plate method; details: read-out: DIZ
Pseudomonas aeruginosa [5] = assay: Antibacterial activity against Pseudomonas aeruginosa MTCC 2453 at 200 ug/ml by cup-plate method; details: for zone of inhibition at 200 µg/mL: read-out: DIZ
Bacillus subtilis [6] = assay: Antibacterial activity against Bacillus subtilis MTCC 121 at 50 ug/ml by cup plate method; details: read-out: DIZ
Staphylococcus aureus [7] = assay: Antibacterial activity against Staphylococcus aureus MTCC 96 at 300 ug/ml by cup-plate method; details: read-out: DIZ
Bacillus subtilis [8] = assay: Antibacterial activity against Bacillus subtilis MTCC 121 at 200 ug/ml by cup plate method; details: read-out: DIZ
Escherichia coli [9] = assay: Antibacterial activity against Escherichia coli MTCC 739 at 100 ug/ml by cup-plate method; details: for zone of inhibition at 100 µg/mL: read-out: DIZ
Staphylococcus aureus [10] = assay: Antibacterial activity against Staphylococcus aureus MTCC 96 at 100 ug/ml by cup-plate method; details: read-out: DIZ
Staphylococcus aureus [11] = assay: Antibacterial activity against Staphylococcus aureus MTCC 96 at 50 ug/ml by cup-plate method; details: read-out: DIZ
Pseudomonas aeruginosa [12] = assay: Antibacterial activity against Pseudomonas aeruginosa MTCC 2453 at 50 ug/ml by cup-plate method; details: for zone of inhibition at 50 µg/mL: read-out: DIZ
Pseudomonas aeruginosa [13] = assay: Antibacterial activity against Pseudomonas aeruginosa MTCC 2453 at 100 ug/ml by cup-plate method; details: for zone of inhibition at 100 µg/mL: read-out: DIZ
Bacillus subtilis [14] = assay: Antibacterial activity against Bacillus subtilis MTCC 121 at 100 ug/ml by cup plate method; details: read-out: DIZ
Escherichia coli [15] = assay: Antibacterial activity against Escherichia coli MTCC 739 at 200 ug/ml by cup-plate method; details: for zone of inhibition at 200 µg/mL: read-out: DIZ
Candida albicans [16] = assay: Antifungal activity against Candida albicans MTCC 227 at 50 ug/ml by cup-plate method; details: for zone of inhibition at 50 µg/mL: read-out: DIZ
Candida albicans [17] = assay: Antifungal activity against Candida albicans MTCC 227 at 300 ug/ml by cup-plate method; details: for zone of inhibition at 300 µg/mL: read-out: DIZ
Candida albicans [18] = assay: Antifungal activity against Candida albicans MTCC 227 at 100 ug/ml by cup-plate method; details: for zone of inhibition at 100 µg/mL: read-out: DIZ
Pseudomonas aeruginosa [19] = assay: Antibacterial activity against Pseudomonas aeruginosa MTCC 2453 at 300 ug/ml by cup-plate method; details: for zone of inhibition at 300 µg/mL: read-out: DIZ
Escherichia coli [20] = assay: Antibacterial activity against Escherichia coli MTCC 739 at 300 ug/ml by cup-plate method; details: for zone of inhibition at 300 µg/mL: read-out: DIZ

| Structure (SMILES) | zone of inhibition at 300 µg/mL (Bacillus subtilis [2]) [mm] | zone of inhibition at 50 µg/mL (Escherichia coli [3]) [mm] | zone of inhibition at 200 µg/mL (Staphylococcus aureus [4]) [mm] | zone of inhibition at 200 µg/mL (Pseudomonas aeruginosa [5]) [mm] | zone of inhibition at 50 µg/mL (Bacillus subtilis [6]) [mm] | zone of inhibition at 300 µg/mL (Staphylococcus aureus [7]) [mm] | zone of inhibition at 200 µg/mL (Bacillus subtilis [8]) [mm] | zone of inhibition at 100 µg/mL (Escherichia coli [9]) [mm] | zone of inhibition at 100 µg/mL (Staphylococcus aureus [10]) [mm] | zone of inhibition at 50 µg/mL (Staphylococcus aureus [11]) [mm] | zone of inhibition at 50 µg/mL (Pseudomonas aeruginosa [12]) [mm] | zone of inhibition at 100 µg/mL (Pseudomonas aeruginosa [13]) [mm] | zone of inhibition at 100 µg/mL (Bacillus subtilis [14]) [mm] | zone of inhibition at 200 µg/mL (Escherichia coli [15]) [mm] | zone of inhibition at 300 µg/mL (Pseudomonas aeruginosa [19]) [mm] | zone of inhibition at 300 µg/mL (Escherichia coli [20]) [mm] | diameter of the inhibition zone (DIZ) (Candida albicans [1]) | diameter of the inhibition zone (DIZ) (Candida albicans [16]) | diameter of the inhibition zone (DIZ) (Candida albicans [17]) | diameter of the inhibition zone (DIZ) (Candida albicans [18]) | also measured |
| --- | --- | --- | --- | --- | --- | --- | --- | --- | --- | --- | --- | --- | --- | --- | --- | --- | --- | --- | --- | --- | --- |
| O=C1N/C(=N\c2ccccc2[N+](=O)[O-])S/C1=C\c1ccccc1 | 13 | 7 | 12 | 8 | 8 | 15 | 11 | 8 | 11 | 10 | 6 | 6 | 10 | 10 | 10 | 12 |  |  |  |  | zone of inhibition at 200 µg/mL (Candida albicans [1]): 13 mm; zone of inhibition at 50 µg/mL (Candida albicans [16]): 10 mm; zone of inhibition at 300 µg/mL (Candida albicans [17]): 18 mm; zone of inhibition at 100 µg/mL (Candida albicans [18]): 11 mm |
| COc1cc(/C=C2\S/C(=N/c3ccccc3[N+](=O)[O-])NC2=O)ccc1O | 12 |  | 8 |  | 8 | 8 | 10 |  | 8 | 7 |  |  | 8 |  |  |  | inactive | inactive | inactive | inactive | diameter of the inhibition zone (DIZ) (Escherichia coli [3]): inactive; diameter of the inhibition zone (DIZ) (Pseudomonas aeruginosa [5]): inactive; diameter of the inhibition zone (DIZ) (Escherichia coli [9]): inactive; diameter of the inhibition zone (DIZ) (Pseudomonas aeruginosa [12]): inactive; diameter of the inhibition zone (DIZ) (Pseudomonas aeruginosa [13]): inactive; diameter of the inhibition zone (DIZ) (Escherichia coli [15]): inactive; diameter of the inhibition zone (DIZ) (Pseudomonas aeruginosa [19]): inactive; diameter of the inhibition zone (DIZ) (Escherichia coli [20]): inactive |
| O=C1N/C(=N\c2ccccc2[N+](=O)[O-])S/C1=C\c1ccccc1[N+](=O)[O-] | 10 | 8 | 13 | 13 | 9 | 14 | 10 | 8 | 10 | 10 | 10 | 10 | 9 | 10 | 13 | 11 |  |  |  |  | zone of inhibition at 200 µg/mL (Candida albicans [1]): 23 mm; zone of inhibition at 50 µg/mL (Candida albicans [16]): 10 mm; zone of inhibition at 300 µg/mL (Candida albicans [17]): 26 mm; zone of inhibition at 100 µg/mL (Candida albicans [18]): 16 mm |
| O=C1N/C(=N\c2ccccc2[N+](=O)[O-])S/C1=C\c1cccc([N+](=O)[O-])c1 | 22 | 10 | 14 | 15 | 7 | 16 | 20 | 8 | 10 | 8 | 10 | 11 | 15 | 13 | 16 | 15 |  |  |  |  | zone of inhibition at 200 µg/mL (Candida albicans [1]): 14 mm; zone of inhibition at 50 µg/mL (Candida albicans [16]): 10 mm; zone of inhibition at 300 µg/mL (Candida albicans [17]): 16 mm; zone of inhibition at 100 µg/mL (Candida albicans [18]): 12 mm |
| O=C1N/C(=N\c2ccc([N+](=O)[O-])cc2)S/C1=C\c1cccc([N+](=O)[O-])c1 | 15 | 11 | 16 | 12 | 11 | 17 | 13 | 11 | 15 | 11 | 10 | 11 | 12 | 12 | 12 | 12 | inactive | inactive | inactive | inactive |  |
| O=C1N/C(=N\c2ccc([N+](=O)[O-])cc2)S/C1=C\c1ccccc1[N+](=O)[O-] | 15 | 11 | 16 | 12 | 11 | 17 | 13 | 11 | 15 | 11 | 10 | 11 | 12 | 12 | 12 | 12 | inactive | inactive | inactive | inactive |  |
| O=C1N/C(=N\c2ccccc2[N+](=O)[O-])S/C1=C\c1ccc(O)cc1 | 11 |  | 10 |  | 10 | 11 | 10 |  | 10 | 10 |  |  | 10 |  |  |  | inactive | inactive | inactive | inactive | diameter of the inhibition zone (DIZ) (Escherichia coli [3]): inactive; diameter of the inhibition zone (DIZ) (Pseudomonas aeruginosa [5]): inactive; diameter of the inhibition zone (DIZ) (Escherichia coli [9]): inactive; diameter of the inhibition zone (DIZ) (Pseudomonas aeruginosa [12]): inactive; diameter of the inhibition zone (DIZ) (Pseudomonas aeruginosa [13]): inactive; diameter of the inhibition zone (DIZ) (Escherichia coli [15]): inactive; diameter of the inhibition zone (DIZ) (Pseudomonas aeruginosa [19]): inactive; diameter of the inhibition zone (DIZ) (Escherichia coli [20]): inactive |
| O=C1N/C(=N\c2ccc([N+](=O)[O-])cc2)S/C1=C\c1ccccc1 | 15 | 11 | 14 | 11 | 11 | 16 | 13 | 12 | 13 | 12 | 10 | 10 | 12 | 13 | 13 | 15 | inactive | inactive | inactive | inactive |  |
| O=C1N/C(=N\c2ccccc2[N+](=O)[O-])S/C1=C\c1ccc(Cl)cc1 | 16 | 10 | 16 | 17 | 13 | 18 | 15 | 11 | 15 | 14 | 14 | 15 | 14 | 11 | 18 | 11 | inactive | inactive | inactive | inactive |  |
| O=C1N/C(=N\c2ccccc2[N+](=O)[O-])S/C1=C\c1ccccc1Cl | 18 | 9 | 14 | 12 | 11 | 15 | 15 | 10 | 12 | 11 | 8 | 10 | 13 | 10 | 15 | 12 |  |  |  |  | zone of inhibition at 200 µg/mL (Candida albicans [1]): 18 mm; zone of inhibition at 50 µg/mL (Candida albicans [16]): 10 mm; zone of inhibition at 300 µg/mL (Candida albicans [17]): 19 mm; zone of inhibition at 100 µg/mL (Candida albicans [18]): 16 mm |
| O=C(O)c1cn(C2CC2)c2cc(N3CCNCC3)c(F)cc2c1=O [CIPROFLOXACIN] |  |  |  |  |  |  |  | 28 | 19 |  |  | 18 | 22 |  |  |  |  |  |  | inactive |  |
| OC(Cn1cncn1)(Cn1cncn1)c1ccc(F)cc1F [FLUCONAZOLE] |  |  |  |  |  |  |  |  |  |  |  |  |  |  |  |  |  |  |  |  | zone of inhibition at 100 µg/mL (Candida albicans [18]): 35 mm |
